{"source": "paper PMC10761937", "about": "“Functional engineering of human iPSC‐derived parasympathetic neurons enhances responsiveness to gastrointestinal hormones” (FEBS Open Bio, 2023)", "key": {"GLP2R": {"test_system": "GLP2R", "experiment": "Ca^2+ imaging, GLP2R‐HEK293T cells", "format": "cell-based, human", "settings": "Fluo‐8 AM, Ringer's solution pH 7.4, ΔF/F 0, n = 20", "experimental": "(§1) HEK293T cells (Lenti‐X 293T Cell line; TaKaRa, Shiga, Japan) were maintained in Dulbecco's Modified Eagle Medium (DMEM; Fujifilm Wako Pure Chemical Industries, Osaka, Japan) supplemented with 10% fetal bovine serum (Biowest, Nuaillé, France), 1% non‐essential amino acids (NEAA) (Fujifilm Wako Pure Chemical Industries), and 1% penicillin–streptomycin (P/S) (Fujifilm Wako Pure Chemical Industries) and cultured in non‐coated culture plates at 37 °C and in an incubator with 5% CO2. The culture medium was replaced every 2–3 days. At 80–90% confluence, the cell colonies were digested into single cells using TrypLE Express (Thermo Fisher Scientific). The resulting cells were used for lentiviral transfection and agonist experiments.\n(§2) Figure S1 presents the protocol used for this experiment. Lentiviral vectors were acquired from VectorBuilder (VectorBuilder Japan, Inc., Kanagawa, Japan). […]\n(§3) Transduced HEK293T and neurons were incubated with 10 μM Fluo‐8 AM, a calcium indicator (AAT Bioquest, Pleasanton, CA, USA), in each culture medium (Cell lines and cell culture and Induction to parasympathetic neurons sections) at 37 °C for 30 min. […] Fluorescence (excitation: 490 nm, emission: 525 nm) was detected using a confocal spinning disk confocal laser scanning unit (CSU‐W1; Yokogawa Electric, Tokyo, Japan) and an LED light (X‐Cite 120LED; Opto Science, Tokyo, Japan). […]"}, "GLP2R‐neurons": {"test_system": "GLP2R‐neurons", "experiment": "Ca^2+ imaging, directly transduced GLP2R‐neurons", "format": "cell-based, human", "settings": "100 nM GLP2; GLP2R‐neurons (transduced during differentiation) day 35; Fluo‐8 AM; n = 20", "experimental": "(§4) Before initiating differentiation, the iPSCs (1–2 × 10^5 cells·cm^−2; Cell lines and cell culture section) were transferred to 6‐well plates (Corning, Inc., Corning, NY, USA) coated with 2‐methacryloyloxyethyl phosphorylcholine (MPC) polymer (Lipidure CM5206E; NOF, Tokyo, Japan). The cells were maintained in mTeSR1 cGMP medium containing 10 μM Y‐27632 (Fujifilm Wako Pure Chemical Industries) for 2 or 3 days to form embryoid body (EBs) in a rotary shaker at 95 r.p.m. (OS‐762RC; Optime, Tokyo, Japan). Subsequently, iPSCs were differentiated into neural crest cells (NCCs), as previously reported. Briefly, NCCs were induced from Ebs using knockout serum replacement (KSR) medium and N2 medium with graded addition of nerve growth factors and signaling factors. KSR medium was composed of DMEM‐F12 (Fujifilm Wako Pure Chemical Industries), 20% KSR (Thermo Fisher Scientific), 1% NEAA, 1% monothioglycerol (Fujifilm Wako Pure Chemical Industries), and 1% P/S. N2 medium consisted of DMEM‐F12, 1% N2 supplement (Fujifilm Wako Pure Chemical Industries), 1% NEAA, and 1% P/S. When EB formation was considered day 0 of induction, the medium was changed at days 2, 5, 7, 9, and 12. […]"}, "HTR3A": {"test_system": "HTR3A", "experiment": "Ca^2+ imaging, HTR3A‐HEK293T cells", "format": "cell-based, human", "settings": "Fluo‐8 AM, Ringer's solution pH 7.4, ΔF/F 0, n = 10", "experimental": "as §1, §2, §3"}, "HTR3A‐neurons": {"test_system": "HTR3A‐neurons", "experiment": "Ca^2+ imaging, directly transduced HTR3A‐neurons", "format": "cell-based, human", "settings": "100 μM 5‐HT; HTR3A‐neurons (transduced during differentiation) day 35; Fluo‐8 AM; n = 20; Student's t‐test vs. 0 μM", "experimental": "as §4"}, "rat nodal ganglion cells": {"test_system": "rat nodal ganglion cells", "settings": "various concentrations; ref [31], [32], [33], [34]; cited from earlier work", "description": "Previous reports indicate that rat nodal ganglion cells respond to various concentrations of hormones, including CCK, GLP1, PYY, and 5‐HT [31, 32, 33, 34]. […] However, it is noteworthy that the overexpression of these receptors in our model may not reconstruct natural expres ..."}, "CCKAR": {"test_system": "CCKAR", "experiment": "Ca^2+ imaging, CCKAR‐HEK293T cells", "format": "cell-based, human", "settings": "Fluo‐8 AM, Ringer's solution pH 7.4, ΔF/F 0, n = 10, Dunnett's test vs. 0 nM", "experimental": "as §1, §2, §3"}, "CCKAR‐neurons [1]": {"test_system": "CCKAR‐neurons", "experiment": "Ca^2+ imaging, CCKAR‐neurons (iPSC‐derived)", "format": "cell-based, human", "settings": "100 nM CCK‐33; CCKAR‐neurons day 35; Fluo‐8 AM; ΔF stim/F 0; n = 20; Student's t‐test vs. 0 nM", "experimental": "as §4"}, "CCKAR‐neurons [2]": {"test_system": "CCKAR‐neurons", "experiment": "MEA recording of neuronal firing, CCKAR‐neurons", "format": "cell-based, human", "settings": "100 nM vs. 0 nM CCK‐33: P = 0.018; day 27; 0 nM n = 128 electrodes, 100 nM n = 57 electrodes; 5 min before and after ligand addition", "experimental": "as §4"}}, "note": "Where no end group is shown, it is not given here."}
{"compound": "GLP2: GLP2 (4276‐v; Peptide Institute, Inc.) (HADGSFSDEMNTILDNLAARDFINWLIQTKITD; Glucagon-like peptide 2; UniProt P01275 146-178, looked up)", "values": [{"measurement": "Concentration giving response (Ca^2+ imaging)", "setting": "GLP2R", "result": "> 100", "unit": "nM"}, {"measurement": "Percentage change in fluorescence intensity", "setting": "GLP2R‐neurons", "result": 3, "unit": "%"}, {"measurement": "Response in Ca^2+ imaging", "setting": "GLP2R‐neurons", "result": "responded slightly"}]}
{"compound": "NCCc1c[nH]c2ccc(O)cc12", "note": "[5‐HT, 5‐hydroxytryptamine]", "values": [{"measurement": "Concentration giving response (intracellular Ca^2+ concentration)", "setting": "HTR3A", "result": "> 10", "unit": "µM"}, {"measurement": "Intracellular Ca^2+ concentration", "setting": "HTR3A‐neurons", "result": "increased intracellular Ca^2+ concentration"}, {"measurement": "Response of rat nodal ganglion cells", "setting": "rat nodal ganglion cells", "result": "respond"}]}
{"compound": "CCK‐33: CCK‐33 (4201‐s; Peptide Institute, Inc.) (KAPSGRMSIVKNLQNLDPSHRISDRDYMGWMDF; ends and bridges not checked; UniProt P06307 71-103, looked up)", "values": [{"measurement": "Concentration giving response (change in intracellular Ca^2+ concentration)", "setting": "CCKAR", "result": "> 100", "unit": "nM"}, {"measurement": "Intracellular Ca^2+ concentration", "setting": "CCKAR‐neurons [1]", "result": "significantly increased the intracellular Ca^2+ concentration"}, {"measurement": "Neuronal firing frequency change rate", "setting": "CCKAR‐neurons [2]", "result": "significantly increased the neuronal firing frequency change rate"}]}
{"compound": "CCK‐8: CCK‐Octapeptide (26–33) (CCK‐8) (4100‐v; Peptide Institute, Inc.) (DYMGWMDF; ends and bridges not checked; UniProt P06307 96-103, looked up)", "values": [{"measurement": "Concentration giving response (change in intracellular Ca^2+ concentration)", "setting": "CCKAR", "result": "> 10", "unit": "nM"}]}
